From patent publication US11434222B2, “MAGL inhibitors” (H. LUNDBECK A/S, priority 2020, dated 2022)
Like-named read-outs stand apart in the source and are kept apart here.

Tests used:
[1] = tested on: kainic acid induced seizures; assay: Kainic acid seizure model in the rat; format: in vivo; settings: for anticonvulsant effects in the kainic acid seizure test: rat; for magnitude of the effects in the kainic acid seizure test compared with reference: middle-high doses, reference Diazepam 16 mg/kg p.o.
Experimental: Kainic acid is an analog of the excitatory neurotransmitter, glutamate and acts as an agonist of kainic acid receptors. After systemic injection, kainic acid induces prolonged excitatory responses with many of the features of human temporal lobe epilepsy.
Rats, placed in individual Plexiglas cages (33×21×18 cm), are injected with kainic acid (20 mg/kg i.p.). The occurrences of the following symptoms are noted over a 120-minute period 30 minutes after kainic acid injection: forelimb clonus, rearings and rearings with falling, clonic convulsions, tonic convulsions and death. The presence of each symptom and the latencies to the first appearance of the symptoms are measured. The number of forelimb clonus is counted.
12 rats are studied per group. The test is performed partially blind.
The test substances will be evaluated at multiple doses, administered p.o. 240 minutes before the test, and compared with the corresponding vehicle control group (Group 2, administered with 10% HP-b-CD in distilled water, p.o. 240 minutes before the test).
Example 6 was evaluated at 0.3, 1, 3 and 10 mg/kg, and Example 8 was evaluated at 1, 3 and 10 mg/kg, administered p.o. 4 hours before the test, and compared with a vehicle control group (administered with 10% HP-b-CD, p.o. 4 hours before the test).
Diazepam (16 mg/kg) used as reference substance, was administered p.o. 60 minutes before the test (0.5% HP-b-CD) and was compared with vehicle controls.
Quantitative data (latencies) with the test substance was analyzed by comparing treated groups with vehicle control using Kruskal-Wallis test followed by Mann-Whitney U test. Quantitative data with the reference substance will be analysed using Mann-Whitney U test.
Quantal data (frequencies) were analyzed by comparing treated groups with vehicle control using Fisher's Exact Probability tests.

[2] = In vitro human hepatocyte stability; format: in vitro ADME; settings: cryopreserved human hepatocytes (pooled donor), human hepatocytes 0.5×10^6 cells/mL, read-out: Scaled-up unbound CLint
[3] = tested on: rat formalin paw model of inflammatory pain; assay: Rat formalin paw model of inflammatory pain; format: in vivo
Experimental: In the rat formalin paw model formalin is administered into the right […] of a rat in order to induce pain (observed by hind limb licking duration and frequency).
Male Sprague Dawley rats were divided into three cohorts to enable testing in the Laboras™ equipment to be carried out over three days in a balanced design to give treatment groups of 10. On the day of the study, male Sprague Dawley rats were weighed, tail marked and dosed orally with vehicle, test compound (0.1, 0.3, 0.6, 1, 3 or 10 mg/kg) or pregabalin (30 mg/kg) 4 h pre-test using a 5 mL/kg dosing volume. For Example 6 the vehicle used was 0.5% methylcellulose in water and for Example 8 the vehicle used was 20% HP-b-CD. Up to six animals were dosed at a time. After 4 h, rats received an intraplantar injection of 50 μL of a 2.5% v/v formalin solution into the right hind paw. Rats were immediately placed into the Laboras™ cages and data acquisition started. The primary measures recorded by Laboras™ for the formalin paw model are hind limb licking duration and frequency. Locomotion is also reported as maximum speed, average speed when moving or over the whole-time bin and distance travelled. After 40 min, when data acquisition was complete, rats were removed from the cages.
On removal from the test cages, rats were anaesthetised with the gaseous anaesthetic isoflu-rane (5% v/v isoflurane in oxygen) and blood samples were collected by cardiac puncture. Brains were then removed, rinsed in phosphate buffered saline (PBS), hemi-sected and frozen separately in liquid nitrogen.
Data were analysed with Statistica software (TIBCO, USA version 11.1). All data are expressed as means±standard error of the mean (sem) to one decimal place. […] Time course data were analysed by repeated measures analysis of variance (ANOVA) followed by one-way ANOVAs at each time point and subsequent Dunnett's post hoc tests. […]

[4] = Free fraction in rat plasma and brain homogenate by equilibrium dialysis; format: in vitro ADME
Experimental: Brain disposition was evaluated in male Sprague-Dawley rats (n=3, standard body weight). Briefly, test compound was formulated as a simple suspension, in 0.5% HPMC in water, then administered by oral gavage (5 mg/kg, 5 mL/kg). Four hours post dosing, rats were sacrificed, and terminal blood and brain samples were taken. Blood was obtained via cardiac puncture (0.1 mL) and was added into 0.4 mL CH3CN for precipitation immediately. The samples were stored at −75+/−15° C. prior to analysis. Brain tissue samples were collected after animals were fully exsanguinated, and the tissues were washed with cold saline quickly. After sectioning, brain sections were immediately frozen in liquid nitrogen and stored at −75+/−15° C. prior to analysis. Blood and brain samples were analyzed by LC/MS/MS using an optimized analytical method. Concentrations of test compound in blood and brain were quantified against matrix matched calibration standards. The total blood, plasma, and brain concentration data are presented in Table 2 alongside the calculated brain Kp (total brain concentration:total plasma concentration ratio), the calculated brain kp,uu (unbound brain concentration:unbound plasma concentration ratio), the free fractions in rat plasma and brain, and the in vitro rat blood to plasma distribution profile. The total plasma concentration data were calculated from the total blood concentration data using rat blood to plasma ratio which was measured in vitro (1 μM test compound). For kp,uu determination, the free fraction in rat plasma and brain homogenate were measured in vitro by standard equilibrium dialysis (1 μM test compound and 6 h equilibration against buffer pH 7.4; for rat plasma analysis, 100 mM stock solution of diisopropyl fluorophosphate was added to the pre-warmed rat plasma prior to adding test article).

[5] = rat brain homogenate, buffer pH 7.4, read-out: Rat brain free fraction
[6] = rat plasma, buffer pH 7.4, read-out: Rat plasma free fraction

| SMILES | anticonvulsant effects in the kainic acid seizure test ([1]; dose-range 0.3-10 mg/kg p.o. 4 hours before the test) | magnitude of the effects in the kainic acid seizure test compared with reference [1] | CLint scaled at 1 μM [2] | measure of spontaneous pain (hind limb licking frequency) ([3]; 0.6 mg/kg, 3 mg/kg and 10 mg/kg p.o. 4 h pre-test, early and/or late phases, FIG. 1) | fraction unbound at 6 h, 1 μM [4, 5] | fraction unbound at 6 h, 1 μM [4, 6] | anticonvulsant effects in the kainic acid seizure test ([1]; dose-range 1-10 mg/kg p.o. 4 hours before the test) | measure of spontaneous pain (hind limb licking frequency) ([3]; 0.3 mg/kg and 0.6 mg/kg p.o. 4 h pre-test, late phase, FIG. 2) | measure of spontaneous pain (hind limb licking frequency) ([3]; 1 mg/kg, 3 mg/kg and 10 mg/kg p.o. 4 h pre-test, both early and late phases, FIG. 2) |
| --- | --- | --- | --- | --- | --- | --- | --- | --- | --- |
| O=C(Nc1cccnn1)[C@H]1CC12CCN(C(=O)OC(C(F)(F)F)C(F)(F)F)CC2 [Example 6, 1,1,1,3,3,3-hexafluoropropan-2-yl (S)-1-(pyridazin-3-ylcarbamoyl)-6-azaspiro[2.5]octane-6-carboxylate] | clear anticonvulsant effects | close to those observed with the reference substance, Diazepam | 5.79 mL/min/kg | statistically significant reduction | 0.04 | 0.055 | – | – | – |
| O=C(NC1CCOCC1)[C@H]1CC12CCN(C(=O)OC(C(F)(F)F)C(F)(F)F)CC2 [Example 8, 1,1,1,3,3,3-hexafluoropropan-2-yl (S)-1-[(oxan-4-yl)carbamoyl]-6-azaspiro[2.5]octane-6-carboxylate] | – | close to those observed with the reference substance, Diazepam | 7.75 mL/min/kg | – | 0.167 | 0.427 | clear anticonvulsant effects | statistically significant reduction | statistically significant reduction |
